Measured values taken from patent US12234245B2, “Sulfonimidamide compounds as inhibitors of interleukin-1 activity” (Genentech, Inc., priority 2018, dated 2025).
Read-outs that look alike come from different tables or passages of the source.

Key:
Type in all cases: cell-based
[1] = tested on: PBMCs; assay: CTG (CellTiter-Glo) viability assay in PBMCs; details: LPS and nigericin stimulated
Method: (§1) Human peripheral blood mononuclear cells (PBMCs), consisting of lymphocytes (T, B and NK cells), monocytes and dendritic cells, were freshly isolated from human peripheral blood from healthy donors. Cells were obtained through an IRB approved donor program by iXCells Biotechnologies where all the donors were tested for bacterial and viral infections. Cells were purified from peripheral blood using ficoll gradient centrifugation.
(§2) Fresh or cryopreserved PMBCs were seeded in V-bottom 96-well plate at 0.5-1×10^5 cells per well and incubated overnight at 37° C. with 5% CO2 in RPMI 1640 medium with GlutaMAX supplement, 4.5 g/L D-glucose, 10% Fetal Bovine Serum (FBS), […] Sodium Pyruvate, 1% Penicillin/Streptomycin, 10 mM HEPES and 0.05 mM of β-mercaptoethanol. Freshly isolated or cryopreserved KCs cells were seeded in flat-bottom 96-well plates at 0.6-1.5×10^5 cells/well and incubated overnight at 37° C. 5% CO2 in RPMI 1640 Medium with GlutaMAX supplement, FBS, 1% Penicillin/Streptomycin and 10 mM HEPES. The following day, the cells were primed with 100 ng/mL of lipopolysaccharides (LPS; Sigma Aldrich) in FBS-free RPMI 1640 for 3 h. After the priming step, the media was removed and PBMCs were pre-incubated with serial concentrations of test compounds (0.00017-10 uM) or vehicle (DMSO) for 30 min in FBS-free media prior to addition of the NLRP3 activator. Cells were then stimulated with 10 uM Nigericin (Sigma Aldrich; InvivoGen) for 1.5 h. Plates were centrifuged at 1,500 rpm for 3 minutes to pellet cells and supernatant was transferred into new plates for subsequent experiments.
Viability of compound treated cells was measured using CellTiter-Glo® assay (Promega, Madison, Wis.) that measures the ATP content of cells which is proportional to the number of live cells within a well. This is a counter-screen to establish that the reduction of IL-1β levels in LPS and nigericin stimulated and compound treated cells is not due to cytotoxicity, but rather through the inhibition of the inflammasome pathway. Compounds inhibiting NRLP3 inflammasome activation ultimately increase the viability of LPS and nigericin stimulated cells by blocking NLRP3 mediated pyroptosis that would otherwise lead to cell lysis.

[2] = tested on: TNFα; assay: TNFα counter-screen in LPS and nigericin stimulated PBMCs; details: human PBMCs
Method: as §1, §2
For ELISA assays cells were seeded into 96-well plates. Post study, supernatants were removed and the levels of mature IL-1β, IL18 and TNFα (Quantikine ELISA, R&D systems) were measured in cell conditioned media by ELISA according to manufacturer's instructions.
TNFα levels of LPS and nigericin stimulated cells were measured by HTRF assay (Cisbio, Bedford, MA). […] Measuring TNFalpha production also serves as a technical counter-screen to eliminate compounds that interfere with the HTRF reagents. Thus compounds that inhibit both IL-1β and TNFα levels are triaged for either being non-selective for inflammasome or interfering with the HTRF readout.

[3] = molecular target: T1, NLRP3 inflammasome (Homo sapiens, UniProt Q96P20); assay: THP-1 ASC-GFP speck assay; parameters: host or cells: THP-1 ASC-GFP cells, PMA-differentiated, LPS-primed, nigericin-stimulated; details: THP-1 ASC-GFP cells, PMA differentiated, LPS primed, 10 μM nigericin; read-out: THP1 ASC Speck IC50
T1 sequence (Q96P20 whole entry): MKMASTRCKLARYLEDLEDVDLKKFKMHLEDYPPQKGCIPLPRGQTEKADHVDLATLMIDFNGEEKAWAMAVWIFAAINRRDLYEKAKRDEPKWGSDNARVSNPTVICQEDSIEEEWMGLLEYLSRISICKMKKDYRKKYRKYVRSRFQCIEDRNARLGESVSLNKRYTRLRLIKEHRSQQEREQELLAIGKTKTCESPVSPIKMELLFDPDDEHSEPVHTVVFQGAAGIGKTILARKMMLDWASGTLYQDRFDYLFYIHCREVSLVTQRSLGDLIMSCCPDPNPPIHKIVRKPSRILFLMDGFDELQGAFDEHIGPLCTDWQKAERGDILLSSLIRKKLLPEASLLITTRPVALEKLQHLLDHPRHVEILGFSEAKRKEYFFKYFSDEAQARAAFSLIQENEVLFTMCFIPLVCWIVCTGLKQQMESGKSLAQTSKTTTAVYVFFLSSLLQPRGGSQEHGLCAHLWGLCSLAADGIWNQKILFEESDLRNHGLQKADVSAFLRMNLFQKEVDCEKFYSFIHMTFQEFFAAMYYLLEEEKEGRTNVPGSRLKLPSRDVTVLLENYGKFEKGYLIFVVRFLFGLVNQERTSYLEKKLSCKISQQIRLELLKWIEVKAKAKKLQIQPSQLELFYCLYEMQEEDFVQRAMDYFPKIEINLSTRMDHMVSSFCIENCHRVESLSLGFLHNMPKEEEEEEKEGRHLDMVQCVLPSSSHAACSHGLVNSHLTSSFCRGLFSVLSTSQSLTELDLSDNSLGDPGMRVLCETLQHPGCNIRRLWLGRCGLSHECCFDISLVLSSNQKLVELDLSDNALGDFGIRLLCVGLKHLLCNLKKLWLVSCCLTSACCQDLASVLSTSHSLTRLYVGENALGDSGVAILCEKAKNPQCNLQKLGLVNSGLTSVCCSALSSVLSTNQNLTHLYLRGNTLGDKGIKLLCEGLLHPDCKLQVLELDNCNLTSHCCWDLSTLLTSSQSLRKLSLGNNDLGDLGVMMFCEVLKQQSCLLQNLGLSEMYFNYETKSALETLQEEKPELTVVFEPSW
Summary of the method: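 PMA-differentiated (500 ng/ml, overnight) THP-1 ASC-GFP cells primed with 1 μg/mL LPS for 3 h, preincubated 30 min with compound (top 40 μM, 2-fold, 20 points), then stimulated with 10 μM nigericin for 90 min at 37 °C. After fixation and Hoechst staining, imaging gave the percentage of cells bearing a GFP ASC speck.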

[4] = molecular target: T1, NLRP3 inflammasome; assay: NLRP3 inflammasome activation assay in PBMCs, IL-1β release (ELISA / HTRF); parameters: were freshly isolated from human peripheral blood from healthy donors; StemCells Technologies; host or cells: primary human PBMCs, LPS-primed, nigericin-stimulated; details: LPS primed
Summary of the method: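 Human PBMCs primed with 100 ng/mL LPS for 3 h, pre-treated with compound for 30 min (0.00017–10 µM, or from 40 µM in 2-fold 20-point series), then stimulated with 10 µM nigericin for 1.5 h at 37 °C. Released IL-1β in supernatant quantified by ELISA or by HTRF (665/620 ratio, overnight RT).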

[5] = human PBMCs, read-out: PBMC CTG IC50
[6] = 10 μM nigericin, read-out: PBMC IL-1β IC50
[7] = 10 uM nigericin, read-out: PBMC IL-1 β IC50
[8] = PBMC, read-out: PBMC TNF α IC50

NS(=O)(=NC(=O)Nc1c2c(cc3c1CCC3)CCC2)c1cnn2c1OCCC2 (single isomer, unassigned) [Example 13]
IC50 [1, 5]: 8 nM | IC50 ([2]; PBMC): > 10000 nM | IC50 [3]: 75 nM | IC50 [4, 6]: 35 nM

NS(=O)(=NC(=O)Nc1c2c(c(F)c3c1CCC3)CCC2)c1cnn2c1OCCCC2 (racemic) [Example 30, N′-((8-fluoro-1,2,3,5,6,7-hexahydro-s-indacen-4-yl)carbamoyl)-5,6,7,8-tetrahydropyrazolo[5,1-b][1,3]oxazepine-3-sulfonimidamide]
IC50 ([1]; Homo sapiens, PBMC): > 10000 nM | IC50 ([2]; PBMC): > 10000 nM | IC50 [3]: 360 nM | IC50 [4, 6]: 67 nM

COC1COc2c(S(N)(=O)=NC(=O)Nc3c4c(cc5c3CCC5)CCC4)cnn2C1 (single isomer, unassigned) [Example 19]
IC50 [1, 5]: 860 nM | IC50 ([2]; PBMC): > 10000 nM | IC50 [3]: 640 nM | IC50 [4, 6]: 1120 nM

Cn1ccc(S(N)(=O)=NC(=O)Nc2c3c(cc4c2CCC4)CCC3)n1 (racemic) [Example 12, N-((1,2,3,5,6,7-hexahydro-s-indacen-4-yl)carbamoyl)-1-methyl-1H-pyrazole-3-sulfonimidamide]
IC50 ([1]; Homo sapiens, PBMC): 6 nM | IC50 ([2]; PBMC): > 10000 nM | IC50 [4, 6]: 1390 nM

COC1COc2c(S(N)(=O)=NC(=O)Nc3c4c(c(F)c5c3CCC5)CCC4)cnn2C1 (single isomer, unassigned) [Example 32]
IC50 [1, 5]: 5 nM | IC50 ([2]; read-out: PBMC TNFα IC50): > 10000 nM | IC50 [3]: 45 nM | IC50 [4, 6]: 13 nM

CO[C@@H]1COc2c(S(=N)(=O)NC(=O)Nc3c(C(C)C)cc(F)cc3C(C)C)cnn2C1 (stereo partly drawn) [drawing 672]
IC50 [1, 5]: 100 to 1000 nM | IC50 ([2]; read-out: PBMC TNF α IC50): > 10000 nM | IC50 [4, 7]: 100 to 1000 nM

CN[C@@H]1COc2c(S(=N)(=O)NC(=O)Nc3c(C(C)C)cc(F)cc3C(C)C)cnn2C1 (stereo partly drawn)
IC50 ([1]; Homo sapiens, PBMC): 100 to 1000 nM | IC50 [2, 8]: > 10000 nM | IC50 [4, 7]: 100 to 1000 nM

NS(=O)(=NC(=O)Nc1c2c(c(F)c3c1CCC3)CCC2)c1cnn2c1OCCCC2 (stereo not drawn)
IC50 ([1]; Homo sapiens, PBMC): > 10000 nM | IC50 [2, 8]: > 10000 nM | IC50 [4, 7]: < 100 nM

CN(C)[C@@H]1COc2c(S(=N)(=O)NC(=O)Nc3c4c(cc5c3CCC5)CCC4)cnn2C1 (stereo partly drawn) [drawing 681]
IC50 ([1]; Homo sapiens, PBMC): < 100 nM | IC50 [2, 8]: > 10000 nM | IC50 [4, 7]: 100 to 1000 nM

N=S(=O)(NC(=O)Nc1c2c(cc3c1CCC3)CCC2)c1cnn2c1OCCC2 (single isomer, unassigned) [drawing 662]
IC50 [1, 5]: < 100 nM | IC50 ([2]; read-out: PBMC TNF α IC50): > 10000 nM | IC50 [4, 7]: 1000 to 10000 nM

NS(=O)(=NC(=O)Nc1c2c(c(F)c3c1CCC3)CCC2)c1cnn2c1OCC2 (stereo not drawn)
IC50 ([1]; Homo sapiens, PBMC): 1000 to 10000 nM | IC50 [2, 8]: > 10000 nM | IC50 [4, 7]: < 100 nM

CN[C@@H]1COc2c(S(=N)(=O)NC(=O)Nc3c4c(cc5c3CCC5)CCC4)cnn2C1 (stereo partly drawn) [drawing 665]
IC50 ([1]; Homo sapiens, PBMC): < 100 nM | IC50 [2, 8]: > 10000 nM | IC50 [4, 7]: < 100 nM

CO[C@@H]1COc2c(S(N)(=O)=NC(=O)Nc3c(C(C)C)cc(F)cc3C(C)C)cnn2C1 (mixture of isomers) [Example 15, (6S)—N′-((4-fluoro-2,6-diisopropylphenyl)carbamoyl)-6-methoxy-6,7-dihydro-5H-pyrazolo[5,1-b][1,3]oxazine-3-sulfonimidamide]
IC50 ([1]; Homo sapiens, PBMC): 95 nM | IC50 ([2]; PBMC): > 10000 nM | IC50 [4, 6]: 300 nM

COC1COc2c(S(N)(=O)=NC(=O)Nc3c4c(c(F)c5c3CCC5)CCC4)cnn2C1 (single isomer, unassigned) [Example 31]
IC50 [1, 5]: 20 nM | IC50 ([2]; PBMC): > 10000 nM | IC50 [3]: 620 nM | IC50 [4, 6]: 150 nM

CN[C@@H]1COc2c(S(N)(=O)=NC(=O)Nc3c(C(C)C)cc(F)cc3C(C)C)cnn2C1 (mixture of isomers) [Example 16, (6S)—N′-((4-fluoro-2,6-diisopropylphenyl)carbamoyl)-6-(methylamino)-6,7-dihydro-5H-pyrazolo[5,1-b][1,3]oxazine-3-sulfonimidamide]
IC50 ([1]; Homo sapiens, PBMC): 131 nM | IC50 ([2]; PBMC): > 10000 nM | IC50 [4, 6]: 270 nM

NS(=O)(=NC(=O)Nc1c2c(c(C(=O)O)c3c1CCC3)CCC2)c1cnn2c1OCCC2 (stereo not drawn)
IC50 ([1]; Homo sapiens, PBMC): > 10000 nM | IC50 [2, 8]: > 10000 nM | IC50 [4, 7]: > 10000 nM

N=S(=O)(NC(=O)Nc1c2c(c(F)c3c1CCC3)CCC2)c1cnn2c1OCCC2 (single isomer, unassigned) [drawing 670]
IC50 [1, 5]: 100 to 1000 nM | IC50 ([2]; read-out: PBMC TNF α IC50): > 10000 nM | IC50 [4, 7]: 1000 to 10000 nM

CNC1COc2c(S(N)(=O)=NC(=O)Nc3c(C(C)C)cc(F)cc3C(C)C)cnn2C1 (single isomer, unassigned) [Example 27]
IC50 ([1]; Homo sapiens, PBMC): > 10000 nM | IC50 ([2]; PBMC): > 10000 nM | IC50 [3]: 200 nM | IC50 [4, 6]: 120 nM

Cn1ccc(S(=N)(=O)NC(=O)Nc2c3c(cc4c2CCC4)CCC3)n1 (stereo not drawn)
IC50 ([1]; Homo sapiens, PBMC): < 100 nM | IC50 [2, 8]: > 10000 nM | IC50 [4, 7]: 1000 to 10000 nM

CN(C)[C@@H]1COc2c(S(=N)(=O)NC(=O)Nc3c4c(cc5c3CCC5)CCC4)cnn2C1 (stereo partly drawn) [drawing 682]
IC50 [1, 5]: < 100 nM | IC50 ([2]; read-out: PBMC TNF α IC50): > 10000 nM | IC50 [4, 7]: < 100 nM

CO[C@@H]1COc2c(S(=N)(=O)NC(=O)Nc3c4c(c(F)c5c3CCC5)CCC4)cnn2C1 (stereo partly drawn) [drawing 679]
IC50 [1, 5]: < 100 nM | IC50 ([2]; read-out: PBMC TNF α IC50): > 10000 nM | IC50 [4, 7]: 100 to 1000 nM

COC1COc2c(S(N)(=O)=NC(=O)Nc3c(C(C)C)cc(F)cc3C(C)C)cnn2C1 (single isomer, unassigned) [Example 24]
IC50 [1, 5]: 127 nM | IC50 ([2]; read-out: PBMC TNFα IC50): > 10000 nM | IC50 [4, 6]: 240 nM

CO[C@@H]1COc2c(S(=N)(=O)NC(=O)Nc3c(C(C)C)cc(F)cc3C(C)C)cnn2C1 (stereo partly drawn) [drawing 671]
IC50 [1, 5]: < 100 nM | IC50 ([2]; read-out: PBMC TNF α IC50): > 10000 nM | IC50 [4, 7]: 1000 to 10000 nM

NS(=O)(=NC(=O)Nc1c2c(c(F)c3c1CCC3)CCC2)c1cnn2c1OCCC2 (single isomer, unassigned) [drawing 669]
IC50 ([1]; Homo sapiens, PBMC): < 100 nM | IC50 [2, 8]: > 10000 nM | IC50 [4, 7]: < 100 nM

N=S(=O)(NC(=O)Nc1c2c(cc3c1CCC3)CCC2)c1cnn2c1OC[C@@H](NCCF)C2 (stereo partly drawn)
IC50 ([1]; Homo sapiens, PBMC): 100 to 1000 nM | IC50 [2, 8]: > 10000 nM | IC50 [4, 7]: < 100 nM
